From PubChem BioAssay AID1259407 (Chemical Carcinogenesis Research Information System (CCRIS), 2018)
Entries after “also recorded” stand apart in the source; their conditions may differ. Calls of active or inactive are those of the source. The rule behind the calls is not given here.

System: CCRIS mutagenicity, Ames/micronucleus/aberration tests
Experiment: CCRIS mutagenicity studies

CC(=O)Nc1ccc2c(c1)Cc1ccccc1-2
mutagenic call (End Point: IN VITRO MICRONUCLEUS, Test System: AHH-1 CELLS, Metabolic Activation: NONE): active; positive
mutagenic call (End Point: IN VITRO MICRONUCLEUS, Test System: MCL-5 CELLS, Metabolic Activation: NONE): active; positive
mutagenic call (End Point: IN VITRO MICRONUCLEUS, Test System: V79 CELLS, Metabolic Activation: RAT, LIVER, S-9, AROCLOR 1254): active; positive
mutagenic call (End Point: In vivo micronucleus, Test System: Micronucleated hepatocytes, Species: Rat, Strain/Sex: F344/Male, Route: Oral): active; positive (p<0.01 at highest dose); also recorded: active; positive (p<0.05 at lower dose and p<0.01 at higher dose)
mutagenic call (Test System: AMES SALMONELLA TYPHIMURIUM, Strain/Indicator: DJ400, Metabolic Activation: HUMAN, HEPATOMA CELLS, BENZO[A]ANTHRACENE, Method: PREINCUBATION): active; positive
mutagenic call (Test System: AMES SALMONELLA TYPHIMURIUM, Strain/Indicator: DJ400, Metabolic Activation: HUMAN, HEPATOMA CELLS, Method: PREINCUBATION): active; positive
mutagenic call (Test System: AMES SALMONELLA TYPHIMURIUM, Strain/Indicator: DJ400, Metabolic Activation: RAT, LIVER, S-9, AROCLOR 1254, Method: PREINCUBATION): active; positive
mutagenic call (Test System: AMES SALMONELLA TYPHIMURIUM, Strain/Indicator: DJ400, Metabolic Activation: RAT, LIVER, S-9, Method: PREINCUBATION): active; positive
mutagenic call (Test System: AMES SALMONELLA TYPHIMURIUM, Strain/Indicator: DJ460, Metabolic Activation: HUMAN, HEPATOMA CELLS, BENZO[A]ANTHRACENE, Method: PREINCUBATION): active; positive
mutagenic call (Test System: AMES SALMONELLA TYPHIMURIUM, Strain/Indicator: DJ460, Metabolic Activation: HUMAN, HEPATOMA CELLS, Method: PREINCUBATION): active; positive
mutagenic call (Test System: AMES SALMONELLA TYPHIMURIUM, Strain/Indicator: DJ460, Metabolic Activation: RAT, LIVER, S-9, AROCLOR 1254, Method: PREINCUBATION): active; positive
mutagenic call (Test System: AMES SALMONELLA TYPHIMURIUM, Strain/Indicator: DJ460, Metabolic Activation: RAT, LIVER, S-9, Method: PREINCUBATION): active; positive
mutagenic call (Test System: AMES SALMONELLA TYPHIMURIUM, Strain/Indicator: TA97, Metabolic Activation: NONE, Method: STANDARD PLATE): inactive; negative
mutagenic call (Test System: AMES SALMONELLA TYPHIMURIUM, Strain/Indicator: TA97, Metabolic Activation: RAT, LIVER, S-9, AROCLOR 1254, Method: STANDARD PLATE): inactive; negative
mutagenic call (Test System: AMES SALMONELLA TYPHIMURIUM, Strain/Indicator: TA98, Metabolic Activation: GUINEA PIG, LIVER, HEPATOCYTES): active; positive
mutagenic call (Test System: AMES SALMONELLA TYPHIMURIUM, Strain/Indicator: TA98, Metabolic Activation: GUINEA PIG, LIVER, S-9, Method: STANDARD PLATE): active; positive
mutagenic call (Test System: AMES SALMONELLA TYPHIMURIUM, Strain/Indicator: TA98, Metabolic Activation: HAMSTER, LIVER, HEPATOCYTES): active; positive
mutagenic call (Test System: AMES SALMONELLA TYPHIMURIUM, Strain/Indicator: TA98, Metabolic Activation: HAMSTER, LIVER, S-9, Method: STANDARD PLATE): active; positive
mutagenic call (Test System: AMES SALMONELLA TYPHIMURIUM, Strain/Indicator: TA98, Metabolic Activation: HUMAN, FETAL LIVER, S-9): inactive; negative
mutagenic call (Test System: AMES SALMONELLA TYPHIMURIUM, Strain/Indicator: TA98, Metabolic Activation: HUMAN, HEPATOMA CELLS, BENZO[A]ANTHRACENE, Method: PREINCUBATION): active; positive
mutagenic call (Test System: AMES SALMONELLA TYPHIMURIUM, Strain/Indicator: TA98, Metabolic Activation: HUMAN, HEPATOMA CELLS, Method: PREINCUBATION): active; positive
mutagenic call (Test System: AMES SALMONELLA TYPHIMURIUM, Strain/Indicator: TA98, Metabolic Activation: HUMAN, RED BLOOD CELL, CYTOSOL, Method: PREINCUBATION): active; positive
mutagenic call (Test System: AMES SALMONELLA TYPHIMURIUM, Strain/Indicator: TA98, Metabolic Activation: MOUSE, LIVER, HEPATOCYTES): inactive; negative
mutagenic call (Test System: AMES SALMONELLA TYPHIMURIUM, Strain/Indicator: TA98, Metabolic Activation: MOUSE, LIVER, S-9, Method: STANDARD PLATE): active; positive
mutagenic call (Test System: AMES SALMONELLA TYPHIMURIUM, Strain/Indicator: TA98, Metabolic Activation: NONE, Method: SPIRAL ASSAY): inactive; negative
mutagenic call (Test System: AMES SALMONELLA TYPHIMURIUM, Strain/Indicator: TA98, Metabolic Activation: NONE, Method: STANDARD PLATE): inactive; negative
mutagenic call (Test System: AMES SALMONELLA TYPHIMURIUM, Strain/Indicator: TA98, Metabolic Activation: RABBIT, LIVER, MICROSOMAL FRACTION, Method: STANDARD PLATE): active; positive
mutagenic call (Test System: AMES SALMONELLA TYPHIMURIUM, Strain/Indicator: TA98, Metabolic Activation: RABBIT, LUNG, MICROSOMAL FRACTION, Method: STANDARD PLATE): active; positive
mutagenic call (Test System: AMES SALMONELLA TYPHIMURIUM, Strain/Indicator: TA98, Metabolic Activation: RAT, BLADDER, S-9, PCB, Method: FLUCTUATION TEST): inactive; negative
mutagenic call (Test System: AMES SALMONELLA TYPHIMURIUM, Strain/Indicator: TA98, Metabolic Activation: RAT, LIVER, HEPATOCYTES): inactive; negative
mutagenic call (Test System: AMES SALMONELLA TYPHIMURIUM, Strain/Indicator: TA98, Metabolic Activation: RAT, LIVER, S-9, ACRYLAMIDE, Method: STANDARD PLATE): active; positive
mutagenic call (Test System: AMES SALMONELLA TYPHIMURIUM, Strain/Indicator: TA98, Metabolic Activation: RAT, LIVER, S-9, AROCLOR 1254, Method: PREINCUBATION): active; positive
mutagenic call (Test System: AMES SALMONELLA TYPHIMURIUM, Strain/Indicator: TA98, Metabolic Activation: RAT, LIVER, S-9, AROCLOR 1254, Method: SPIRAL ASSAY): active; positive
mutagenic call (Test System: AMES SALMONELLA TYPHIMURIUM, Strain/Indicator: TA98, Metabolic Activation: RAT, LIVER, S-9, PHENOBARBITAL, Method: STANDARD PLATE): active; positive
mutagenic call (Test System: AMES SALMONELLA TYPHIMURIUM, Strain/Indicator: TA98, Metabolic Activation: RAT, LIVER, S-9, Method: PREINCUBATION): active; positive
mutagenic call (Test System: AMES SALMONELLA TYPHIMURIUM, Strain/Indicator: TA98, Metabolic Activation: RAT, LIVER, S-9, Method: STANDARD PLATE): active; positive
mutagenic call (Test System: AMES SALMONELLA TYPHIMURIUM, Strain/Indicator: TA100, Metabolic Activation: NONE, Method: SPIRAL ASSAY): inactive; negative
mutagenic call (Test System: AMES SALMONELLA TYPHIMURIUM, Strain/Indicator: TA100, Metabolic Activation: NONE, Method: STANDARD PLATE): inactive; negative
mutagenic call (Test System: AMES SALMONELLA TYPHIMURIUM, Strain/Indicator: TA100, Metabolic Activation: RAT, BLADDER, S-9, PCB, Method: FLUCTUATION TEST): inactive; negative
mutagenic call (Test System: AMES SALMONELLA TYPHIMURIUM, Strain/Indicator: TA100, Metabolic Activation: RAT, LIVER, S-9, ACRYLAMIDE, Method: STANDARD PLATE): active; positive
mutagenic call (Test System: AMES SALMONELLA TYPHIMURIUM, Strain/Indicator: TA100, Metabolic Activation: RAT, LIVER, S-9, AROCLOR 1254, Method: SPIRAL ASSAY): inactive; negative
mutagenic call (Test System: AMES SALMONELLA TYPHIMURIUM, Strain/Indicator: TA100, Metabolic Activation: RAT, LIVER, S-9, KC500 OR PHENOBARBITAL, Method: LIQUID SUSPENSION): active; positive
mutagenic call (Test System: AMES SALMONELLA TYPHIMURIUM, Strain/Indicator: TA100, Metabolic Activation: RAT, LIVER, S-9, PHENOBARBITAL, Method: STANDARD PLATE): active; positive
mutagenic call (Test System: AMES SALMONELLA TYPHIMURIUM, Strain/Indicator: TA1535, Metabolic Activation: NONE, Method: SPIRAL ASSAY): inactive; negative
mutagenic call (Test System: AMES SALMONELLA TYPHIMURIUM, Strain/Indicator: TA1535, Metabolic Activation: NONE, Method: STANDARD PLATE): inactive; negative
mutagenic call (Test System: AMES SALMONELLA TYPHIMURIUM, Strain/Indicator: TA1535, Metabolic Activation: RAT, LIVER, S-9, AROCLOR 1254, Method: SPIRAL ASSAY): inactive; negative
mutagenic call (Test System: AMES SALMONELLA TYPHIMURIUM, Strain/Indicator: TA1535, Metabolic Activation: RAT, LIVER, S-9, AROCLOR 1254, Method: STANDARD PLATE): inactive; negative
mutagenic call (Test System: AMES SALMONELLA TYPHIMURIUM, Strain/Indicator: TA1537, Metabolic Activation: NONE, Method: SPIRAL ASSAY): inactive; negative
